Patent US20250049926A1, “PHARMACEUTICAL COMPOSITIONS COMPRISING MODIFIED BETACYCLODEXTRINS” (priority 2021, published 2025)

Experiment: Solubility measurement of saturated solutions by HPLC at room temperature (0 h and 24 h)
Format: physicochemical
Details: for solubility at 0 h / solubility at 24 h: thermodynamic from solid
Protocol: The vial contents are prepared starting with 2.5 mg of the compound of formula (I). The primary excipient is added followed by any further excipient and then the buffered water to a total volume of 500 μL. All components are mixed in a vortex mixer for ca. 5 minutes. If everything is dissolved an additional 2.5 mg of the compound of formula (I) is added and vortexed again for ca. 5 minutes. This is repeated until a saturated solution (suspension) is obtained.
The solubility in vial 1 is measured immediately as described below.
To measure solubility 400 μl of the suspension are taken and placed in a centrifugation device above a 0.2 μm filter. Centrifugation is performed at 14,000 rpm for 10 minutes and if necessary repeated for additional 10 minutes. The filter is removed from the vial and 100 μL is taken and diluted with 400 μL high-performance liquid chromatography (HPLC) diluent solution (see below) or diluted with 900 μL HPLC diluent solution in the event 5 mg or more of the compound of formula (I) was used. The pH of the solution is measured. A further 100 μL of the vial solution is taken and diluted with 400 μL of HPLC diluent solution or diluted with 900 μL HPLC diluent solution in the event 5 mg or more of the compound of formula (I) was used. The assay of the solution versus control stock solution is measured by HPLC and the solubility is calculated as described below. The HPLC diluent solution is 0.1% trifluoroacetic acid (TFA) in acetonitrile (ACN) and water (1:1 v/v).
All solubility tests are performed at room temperature.
The HPLC method for assessing solubility is performed as follows:
The solubility of the compound of formula (I) is calculated according to the following formula:
[formula] • Solubility=solubility of compound of formula (I) (mg/mL) • A=peak area of the compound of the sample tested • a=value of constant “a” in Linear regression equation y=ax+b • b=value of constant “b” in Linear regression equation y=ax+b • n=dilution time • Formulations for stability assessment are prepared as follows: […]

[1] = buffered water with excipients, pH 2, aqueous with cosolvent or surfactant or cyclodextrin, CBS 30 mM pH 2.0, NaCl 3 mg/mL, SBE-beta-CD 40 mg/mL, pH exp 2.2

- effect of additional excipient on solubility with SBE-beta-CD (Kollidon 12 PF, Kolliphor P188, soybean lecithin): very small impact on solubility
- effect of additional excipient on solubility with SBE-beta-CD (PEG 400, glycerol, propylene glycol and PEG 4000): do not increase the solubility
- effect of additional excipient on solubility with SBE-beta-CD (addition of Tween 80): slightly improves solubility
- effect of additional excipient on solubility with SBE-beta-CD (addition of carboxymethylcellulose sodium, solution sticky at 24 hours): decreases solubility
- solubility at 0 h (buffered water with excipient (saturated solution), pH 4, aqueous buffer, CBS 30 mM pH 4.0, Ethanol 20 mg/mL, pH exp 4.1): 160 µg/mL
- solubility at 24 h (buffered water with excipient (saturated solution), pH 4, aqueous buffer, CBS 30 mM pH 4.0, Ethanol 20 mg/mL, pH exp 4.2): 110 µg/mL
- solubility at 0 h (buffered water with excipient (saturated solution), pH 4, aqueous buffer, CBS 30 mM pH 4.0, PEG 400 20 mg/mL, pH exp 4.1): 220 µg/mL
- solubility at 24 h (buffered water with excipient (saturated solution), pH 4, aqueous buffer, CBS 30 mM pH 4.0, PEG 400 20 mg/mL, pH exp 4.3): 150 µg/mL
- solubility at 0 h (buffered water with excipient (saturated solution), pH 4, aqueous with cosolvent or surfactant or cyclodextrin, CBS 30 mM pH 4.0, NaCl 3 mg/mL, HP-beta-CD 40 mg/mL, pH exp 4.10): 1670 µg/mL
- solubility at 24 h (buffered water with excipient (saturated solution), pH 4, aqueous with cosolvent or surfactant or cyclodextrin, CBS 30 mM pH 4.0, NaCl 3 mg/mL, HP-beta-CD 40 mg/mL, pH exp 4.28): 980 µg/mL
- solubility at 0 h (buffered water with excipient (saturated solution), pH 4, aqueous with cosolvent or surfactant or cyclodextrin, CBS 30 mM pH 4.0, NaCl 3 mg/mL, SBE-beta-CD 10 mg/mL, pH exp 4.1): 890 µg/mL
- solubility at 24 h (buffered water with excipient (saturated solution), pH 4, aqueous with cosolvent or surfactant or cyclodextrin, CBS 30 mM pH 4.0, NaCl 3 mg/mL, SBE-beta-CD 10 mg/mL, pH exp 4.2): 1110 µg/mL
- solubility at 0 h (buffered water with excipient (saturated solution), pH 4, aqueous with cosolvent or surfactant or cyclodextrin, CBS 30 mM pH 4.0, NaCl 3 mg/mL, SBE-beta-CD 25 mg/mL, pH exp 4.1): 1840 µg/mL
- solubility at 24 h (buffered water with excipient (saturated solution), pH 4, aqueous with cosolvent or surfactant or cyclodextrin, CBS 30 mM pH 4.0, NaCl 3 mg/mL, SBE-beta-CD 25 mg/mL, pH exp 4.2): 2540 µg/mL
- solubility at 0 h (buffered water with excipient (saturated solution), pH 4, aqueous with cosolvent or surfactant or cyclodextrin, CBS 30 mM pH 4.0, NaCl 3 mg/mL, SBE-beta-CD 40 mg/mL, pH exp 4.0): 2480 µg/mL
- solubility at 24 h (buffered water with excipient (saturated solution), pH 4, aqueous with cosolvent or surfactant or cyclodextrin, CBS 30 mM pH 4.0, NaCl 3 mg/mL, SBE-beta-CD 40 mg/mL, pH exp 4.2): 3800 µg/mL
- solubility at 0 h (buffered water with excipient (saturated solution), pH 4, aqueous with cosolvent or surfactant or cyclodextrin, CBS 30 mM pH 4.0, Ethanol 50 mg/mL, pH exp 4.2): 190 µg/mL
- solubility at 24 h (buffered water with excipient (saturated solution), pH 4, aqueous with cosolvent or surfactant or cyclodextrin, CBS 30 mM pH 4.0, Ethanol 50 mg/mL, pH exp 4.3): 90 µg/mL
- solubility at 0 h (buffered water with excipient (saturated solution), pH 4, aqueous with cosolvent or surfactant or cyclodextrin, CBS 30 mM pH 4.0, Ethanol 100 mg/mL, pH exp 4.2): 260 µg/mL
- solubility at 24 h (buffered water with excipient (saturated solution), pH 4, aqueous with cosolvent or surfactant or cyclodextrin, CBS 30 mM pH 4.0, Ethanol 100 mg/mL, pH exp 4.4): 140 µg/mL
- solubility at 0 h (buffered water with excipient (saturated solution), pH 4, aqueous with cosolvent or surfactant or cyclodextrin, CBS 30 mM pH 4.0, Glycerol 50 mg/mL, pH exp 4.1): 180 µg/mL
- solubility at 24 h (buffered water with excipient (saturated solution), pH 4, aqueous with cosolvent or surfactant or cyclodextrin, CBS 30 mM pH 4.0, Glycerol 50 mg/mL, pH exp 4.3): 120 µg/mL
- solubility at 0 h (buffered water with excipient (saturated solution), pH 4, aqueous with cosolvent or surfactant or cyclodextrin, CBS 30 mM pH 4.0, Glycerol 100 mg/mL, pH exp 4.1): 210 µg/mL
- solubility at 24 h (buffered water with excipient (saturated solution), pH 4, aqueous with cosolvent or surfactant or cyclodextrin, CBS 30 mM pH 4.0, Glycerol 100 mg/mL, pH exp 4.3): 130 µg/mL
- solubility at 0 h (buffered water with excipient (saturated solution), pH 4, aqueous with cosolvent or surfactant or cyclodextrin, CBS 30 mM pH 4.0, Glycerol 500 mg/mL, pH exp 4.6): 1060 µg/mL
- solubility at 24 h (buffered water with excipient (saturated solution), pH 4, aqueous with cosolvent or surfactant or cyclodextrin, CBS 30 mM pH 4.0, Glycerol 500 mg/mL, pH exp 4.8): 260 µg/mL
- solubility at 0 h (buffered water with excipient (saturated solution), pH 4, aqueous with cosolvent or surfactant or cyclodextrin, CBS 30 mM pH 4.0, PEG 100 mg/mL, pH exp 4.3): 600 µg/mL
- solubility at 24 h (buffered water with excipient (saturated solution), pH 4, aqueous with cosolvent or surfactant or cyclodextrin, CBS 30 mM pH 4.0, PEG 100 mg/mL, pH exp 4.5): 400 µg/mL
- solubility at 0 h (buffered water with excipient (saturated solution), pH 4, aqueous with cosolvent or surfactant or cyclodextrin, CBS 30 mM pH 4.0, PEG 400 50 mg/mL, pH exp 4.1): 340 µg/mL
- solubility at 24 h (buffered water with excipient (saturated solution), pH 4, aqueous with cosolvent or surfactant or cyclodextrin, CBS 30 mM pH 4.0, PEG 400 50 mg/mL, pH exp 4.4): 230 µg/mL
- solubility at 0 h (buffered water with excipient (saturated solution), pH 4, aqueous with cosolvent or surfactant or cyclodextrin, CBS 30 mM pH 4.0, PEG 400 500 mg/mL, pH exp 6.3): 4100 µg/mL
- solubility at 24 h (buffered water with excipient (saturated solution), pH 4, aqueous with cosolvent or surfactant or cyclodextrin, CBS 30 mM pH 4.0, PEG 400 500 mg/mL, pH exp 6.4): ≥ 4550 µg/mL
- solubility at 0 h (buffered water with excipient (saturated solution), pH 4, aqueous with cosolvent or surfactant or cyclodextrin, CBS 30 mM pH 4.0, PG 50 mg/mL, pH exp 4.1): 200 µg/mL
- solubility at 24 h (buffered water with excipient (saturated solution), pH 4, aqueous with cosolvent or surfactant or cyclodextrin, CBS 30 mM pH 4.0, PG 50 mg/mL, pH exp 4.3): 110 µg/mL
- solubility at 0 h (buffered water with excipient (saturated solution), pH 4, aqueous with cosolvent or surfactant or cyclodextrin, CBS 30 mM pH 4.0, PG 100 mg/mL, pH exp 4.1): 280 µg/mL
- solubility at 24 h (buffered water with excipient (saturated solution), pH 4, aqueous with cosolvent or surfactant or cyclodextrin, CBS 30 mM pH 4.0, PG 100 mg/mL, pH exp 4.4): 150 µg/mL
- solubility at 0 h (buffered water with excipient (saturated solution), pH 4, aqueous with cosolvent or surfactant or cyclodextrin, CBS 30 mM pH 4.0, PG 500 mg/mL, pH exp 5.4): 3740 µg/mL
- solubility at 24 h (buffered water with excipient (saturated solution), pH 4, aqueous with cosolvent or surfactant or cyclodextrin, CBS 30 mM pH 4.0, PG 500 mg/mL, pH exp 5.3): 2200 µg/mL
- solubility at 0 h (buffered water with excipient (saturated solution), pH 5, aqueous with cosolvent or surfactant or cyclodextrin, CBS 30 mM pH 5.0, NaCl 3 mg/mL, SBE-beta-CD 40 mg/mL, pH exp 5.0): 2240 µg/mL
- solubility at 24 h (buffered water with excipient (saturated solution), pH 5, aqueous with cosolvent or surfactant or cyclodextrin, CBS 30 mM pH 5.0, NaCl 3 mg/mL, SBE-beta-CD 40 mg/mL, pH exp 5.3): 3520 µg/mL
- solubility at 0 h (buffered water with excipient (saturated solution), pH 5.5, aqueous with cosolvent or surfactant or cyclodextrin, CBS 30 mM pH 5.5, NaCl 3 mg/mL, SBE-beta-CD 40 mg/mL, pH exp 5.5): 1630 µg/mL
- solubility at 0 h [1]: 6590 µg/mL
- solubility at 24 h [1]: 5470 µg/mL
- solubility at 0 h (buffered water with excipients, pH 4, aqueous with cosolvent or surfactant or cyclodextrin, ABS (acetate) 30 mM pH 4.0, NaCl 3 mg/mL, SBE-beta-CD 40 mg/mL, pH exp 4.0): 2880 µg/mL
- solubility at 24 h (buffered water with excipients, pH 4, aqueous with cosolvent or surfactant or cyclodextrin, ABS (acetate) 30 mM pH 4.0, NaCl 3 mg/mL, SBE-beta-CD 40 mg/mL, pH exp 4.6): 3720 µg/mL
- solubility at 0 h (buffered water with excipients, pH 4, aqueous with cosolvent or surfactant or cyclodextrin, ASBS (aspartate) 30 mM pH 4.0, NaCl 3 mg/mL, SBE-beta-CD 40 mg/mL, pH exp 4.0): 2880 µg/mL
- solubility at 24 h (buffered water with excipients, pH 4, aqueous with cosolvent or surfactant or cyclodextrin, ASBS (aspartate) 30 mM pH 4.0, NaCl 3 mg/mL, SBE-beta-CD 40 mg/mL, pH exp 4.6): 3720 µg/mL
- solubility at 0 h (buffered water with excipients, pH 4, aqueous with cosolvent or surfactant or cyclodextrin, CBS 30 mM pH 4.0, NaCl 3 mg/mL, SBE-beta-CD 40 mg/mL + Glycerol 1 mg/mL, pH exp 4.1): 2400 µg/mL
- solubility at 24 h (buffered water with excipients, pH 4, aqueous with cosolvent or surfactant or cyclodextrin, CBS 30 mM pH 4.0, NaCl 3 mg/mL, SBE-beta-CD 40 mg/mL + Glycerol 1 mg/mL, pH exp 4.3): 3720 µg/mL
- solubility at 0 h (buffered water with excipients, pH 4, aqueous with cosolvent or surfactant or cyclodextrin, CBS 30 mM pH 4.0, NaCl 3 mg/mL, SBE-beta-CD 40 mg/mL + Glycerol 5 mg/mL, pH exp 4.2): 2320 µg/mL
- solubility at 24 h (buffered water with excipients, pH 4, aqueous with cosolvent or surfactant or cyclodextrin, CBS 30 mM pH 4.0, NaCl 3 mg/mL, SBE-beta-CD 40 mg/mL + Glycerol 5 mg/mL, pH exp 4.3): 3710 µg/mL
- solubility at 0 h (buffered water with excipients, pH 4, aqueous with cosolvent or surfactant or cyclodextrin, CBS 30 mM pH 4.0, NaCl 3 mg/mL, SBE-beta-CD 40 mg/mL + Glycerol 50 mg/mL, pH exp 4.1): 2330 µg/mL
- solubility at 24 h (buffered water with excipients, pH 4, aqueous with cosolvent or surfactant or cyclodextrin, CBS 30 mM pH 4.0, NaCl 3 mg/mL, SBE-beta-CD 40 mg/mL + Glycerol 50 mg/mL, pH exp 4.2): 3570 µg/mL
- solubility at 0 h (buffered water with excipients, pH 4, aqueous with cosolvent or surfactant or cyclodextrin, CBS 30 mM pH 4.0, NaCl 3 mg/mL, SBE-beta-CD 40 mg/mL + HPMC 5 mg/mL, pH exp 4.1): 2230 µg/mL
- solubility at 24 h (buffered water with excipients, pH 4, aqueous with cosolvent or surfactant or cyclodextrin, CBS 30 mM pH 4.0, NaCl 3 mg/mL, SBE-beta-CD 40 mg/mL + HPMC 5 mg/mL, pH exp 4.3): 3530 µg/mL
Structure (SMILES): COc1cc(N2CCNCC2)ccc1Nc1ncc2c(n1)-n1ccc(C(=O)Nc3c(C)cccc3C)c1CC2 [compound of formula (I)]
